This is an account of results in the supplement of paper PMC11208160.
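Also: IS621 bridge recombinase in Escherichia coli cells against a fixed T5 target plasmid.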

The nature of the data set: recombinant UMI read abundance after kanamycin selection (control-corrected) (log10(CPM+1)); higher = more efficient recombination; extreme values may be limits of the assay; sequences stand for … in AGTGCAGAGAAAATCGGCCAGTTTTCTCTGCCTGCAGTCCGCATGCCGTGGGACCCCTTGGGTTCTAACCTGTTGCCTAGATTTATGCAGCGGACTGCCTTTCTCCCAAAGTGATAAACCGG…AGGTTGGTTTCACT; site = the 11-nt donor. An outline of the steps: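 Sequencing read counts were converted to CPM, averaged over two replicates and scaled by control-derived factors. Results are given as log10(CPM+1). The reads covered the donor–target junction of recombinant UMIs from a pooled Escherichia coli screen of donor and donor-binding-loop pairs for the IS621 bridge recombinase.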
Take “CGCCGTTCATGGACCGGTTTTCCCGGTAATCCGTATTTGCT (site CGCCGTACTAG)”: the “recombinant UMI read abundance (log10)” value was 0.
As for “CGCCGTTCATGGACCGGTTTTCCCGGTAATCCGTATTTGCT (site CGCCGTCCTAG)”, the “recombinant UMI read abundance (log10)” value was 0.00374.
As for “CGCCGTTCATGGACCGGTTTTCCCGGTAATCCGTATTTGCT (site CGCCGTGCTAG)”, the figure is 0; as for “CGCCGTTCATGGACCGGTTTTCCCGGTAATCCGTATTTGCT (site CGCCGTTCTAG)”, 2.41.
As for “CGCCTGACATGGACCGGTTTTCCCGGTAATCCGTATTTGAG (site CGCCTGACTCT)”, the figure is 0.947.
The same measure for “CGCGAGTCATGGACCGGTTTTCCCGGTAATCCGTATTTGCC (site CGAGAGTCTGG)”: 0; for “CGCGAGTCATGGACCGGTTTTCCCGGTAATCCGTATTTGCC (site CGCGAGTCTGG)”: 2.43.
Regarding “CGCGAGTCATGGACCGGTTTTCCCGGTAATCCGTATTTGCC (site CGGGAGTCTGG)”, the “recombinant UMI read abundance (log10)” value is 0.
As for “CGCGAGTCATGGACCGGTTTTCCCGGTAATCCGTATTTGCC (site CGTGAGTCTGG)”, the figure is 0.681; as for “CGCGAGTCATGGACCGGTTTTCCCGGTAATCCGTATTTGTC (site CGCGAGTCTGA)”, 2.8; as for “CGCGGGACATGGACCGGTTTTCCCGGTAATCCGTATTTGGC (site CGCGGGACTGC)”, 2.25.
The same measure for “CGCTAGACATGGACCGGTTTTCCCGGTAATCCGTATTTGAG (site CGATAGACTCT)”: 0.0154; for “CGCTAGACATGGACCGGTTTTCCCGGTAATCCGTATTTGAG (site CGCTAGACTCT)”: 1.64; for “CGCTAGACATGGACCGGTTTTCCCGGTAATCCGTATTTGAG (site CGGTAGACTCT)”: 0.181.
As for “CGCTAGACATGGACCGGTTTTCCCGGTAATCCGTATTTGAG (site CGTTAGACTCT)”, the figure is 0.00455.
As for “CGCTCCTCATGGACCGGTTTTCCCGGTAATCCGTATTTGCC (site CACTCCTCTGG)”, the “recombinant UMI read abundance (log10)” value was 2.35.
Turning to “CGCTCCTCATGGACCGGTTTTCCCGGTAATCCGTATTTGCC (site CCCTCCTCTGG)”, the “recombinant UMI read abundance (log10)” value was determined as 1.72.
As for “CGCTCCTCATGGACCGGTTTTCCCGGTAATCCGTATTTGCC (site CGCTCCTCTGG)”, the figure is 3.14; as for “CGCTCCTCATGGACCGGTTTTCCCGGTAATCCGTATTTGCC (site CTCTCCTCTGG)”, 2.25; as for “CGCTGTCCATGGACCGGTTTTCCCGGTAATCCGTATTTGCA (site CGCTGTCCTTG)”, 0.989.
The same measure for “CGCTGTGCATGGACCGGTTTTCCCGGTAATCCGTATTTGCA (site CGCTGTGCTTG)”: 1.87; for “CGGAACACATGGACCGGTTTTCCCGGTAATCCGTATTTGCA (site AGGAAGACTTG)”: 0.0118; for “CGGAACACATGGACCGGTTTTCCCGGTAATCCGTATTTGCA (site CGGAACACTTG)”: 2.5.
As to “CGGAAGACATGGACCGGTTTTCCCGGTAATCCGTATTTGCC (site AGGAAGACTTG)”, the “recombinant UMI read abundance (log10)” value came out at 0.
The same measure for “CGGAAGACATGGACCGGTTTTCCCGGTAATCCGTATTTGCC (site CGGAAGACTGG)”: 2.59; for “CGGAAGCCATGGACCGGTTTTCCCGGTAATCCGTATTTGTC (site CGGAAGCCTGA)”: 0.
In the case of “CGGAAGCCATGGACCGGTTTTCCCGGTAATCCGTATTTGTC (site CGGAATCCTAA)”, the “recombinant UMI read abundance (log10)” value was 0.00548.
Consider “CGGAATACATGGACCGGTTTTCCCGGTAATCCGTATTTGTT (site CGGAATACTAA)”, for which the “recombinant UMI read abundance (log10)” value is 2.18.
The same measure for “CGGAATACATGGACCGGTTTTCCCGGTAATCCGTATTTGTT (site CGGAATCCTAA)”: 0.
As for “CGGAATACATGGACCGGTTTTCCCGGTAATCCGTATTTGTT (site CGGAATGCTAA)”, the “recombinant UMI read abundance (log10)” value worked out at 0.
As for “CGGAATACATGGACCGGTTTTCCCGGTAATCCGTATTTGTT (site CGGAATTCTAA)”, the “recombinant UMI read abundance (log10)” value was 0.
The same measure for “CGGAATCCATGGACCGGTTTTCCCGGTAATCCGTATTTGTG (site CGGAATCCTAA)”: 0; for “CGGAATCCATGGACCGGTTTTCCCGGTAATCCGTATTTGTG (site CGGAATCCTCA)”: 0.656.
As to “CGGAATCCATGGACCGGTTTTCCCGGTAATCCGTATTTGTG (site CGGAATCCTGA)”, the “recombinant UMI read abundance (log10)” value was found to be 0.
Turning to “CGGAATCCATGGACCGGTTTTCCCGGTAATCCGTATTTGTG (site CGGAATCCTTA)”, the “recombinant UMI read abundance (log10)” value stood at 0.
For “CGGAATCCATGGACCGGTTTTCCCGGTAATCCGTATTTGTT (site ACGAATCCTAA)”, the “recombinant UMI read abundance (log10)” value is 0.0109.
As for “CGGAATCCATGGACCGGTTTTCCCGGTAATCCGTATTTGTT (site AGAAATCCTAA)”, the figure is 0.
In the case of “CGGAATCCATGGACCGGTTTTCCCGGTAATCCGTATTTGTT (site AGGAAACCTAA)”, the “recombinant UMI read abundance (log10)” value is 0.
As for “CGGAATCCATGGACCGGTTTTCCCGGTAATCCGTATTTGTT (site AGGAATCCTAA)”, the figure is 0; as for “CGGAATCCATGGACCGGTTTTCCCGGTAATCCGTATTTGTT (site AGGAATCCTAG)”, 0.
The same measure for “CGGAATCCATGGACCGGTTTTCCCGGTAATCCGTATTTGTT (site AGGAATCCTTA)”: 0; for “CGGAATCCATGGACCGGTTTTCCCGGTAATCCGTATTTGTT (site AGGAATTCTAA)”: 0.
The same measure for “CGGAATCCATGGACCGGTTTTCCCGGTAATCCGTATTTGTT (site AGGATTCCTAA)”: 0.
On to “CGGAATCCATGGACCGGTTTTCCCGGTAATCCGTATTTGTT (site AGGGATCCTAA)”, for which the “recombinant UMI read abundance (log10)” value turned out to be 0.0088.
Regarding “CGGAATCCATGGACCGGTTTTCCCGGTAATCCGTATTTGTT (site CAGAAGCCTAA)”, the “recombinant UMI read abundance (log10)” value amounted to 0.0058.
As for “CGGAATCCATGGACCGGTTTTCCCGGTAATCCGTATTTGTT (site CAGAATACTAA)”, the figure is 0; as for “CGGAATCCATGGACCGGTTTTCCCGGTAATCCGTATTTGTT (site CAGAATCCTAA)”, 0.
As for “CGGAATCCATGGACCGGTTTTCCCGGTAATCCGTATTTGTT (site CAGAATCCTAT)”, the figure is 0; as for “CGGAATCCATGGACCGGTTTTCCCGGTAATCCGTATTTGTT (site CAGAATCCTGA)”, 0.
With “CGGAATCCATGGACCGGTTTTCCCGGTAATCCGTATTTGTT (site CAGAGTCCTAA)”, the “recombinant UMI read abundance (log10)” value was 0.0165.
As for “CGGAATCCATGGACCGGTTTTCCCGGTAATCCGTATTTGTT (site CAGTATCCTAA)”, the figure is 0.0125; as for “CGGAATCCATGGACCGGTTTTCCCGGTAATCCGTATTTGTT (site CATAATCCTAA)”, 0.
Turning to “CGGAATCCATGGACCGGTTTTCCCGGTAATCCGTATTTGTT (site CCAAATCCTAA)”, the “recombinant UMI read abundance (log10)” value stood at 0.
The same measure for “CGGAATCCATGGACCGGTTTTCCCGGTAATCCGTATTTGTT (site CCGAAACCTAA)”: 0.0076.
The same measure for “CGGAATCCATGGACCGGTTTTCCCGGTAATCCGTATTTGTT (site CCGAATCCTAA)”: 0.00308; for “CGGAATCCATGGACCGGTTTTCCCGGTAATCCGTATTTGTT (site CCGAATCCTAG)”: 0.
As for “CGGAATCCATGGACCGGTTTTCCCGGTAATCCGTATTTGTT (site CCGAATCCTTA)”, the figure is 0; as for “CGGAATCCATGGACCGGTTTTCCCGGTAATCCGTATTTGTT (site CCGAATTCTAA)”, 0; as for “CGGAATCCATGGACCGGTTTTCCCGGTAATCCGTATTTGTT (site CCGATTCCTAA)”, 0.00402.
With “CGGAATCCATGGACCGGTTTTCCCGGTAATCCGTATTTGTT (site CCGGATCCTAA)”, the “recombinant UMI read abundance (log10)” value came to 0.
The same measure for “CGGAATCCATGGACCGGTTTTCCCGGTAATCCGTATTTGTT (site CGAAAACCTAA)”: 0.
The same measure for “CGGAATCCATGGACCGGTTTTCCCGGTAATCCGTATTTGTT (site CGAAATCCTAA)”: 0; for “CGGAATCCATGGACCGGTTTTCCCGGTAATCCGTATTTGTT (site CGAAATCCTAG)”: 0.
As for “CGGAATCCATGGACCGGTTTTCCCGGTAATCCGTATTTGTT (site CGAAATCCTTA)”, the “recombinant UMI read abundance (log10)” value is 0.014.
As for “CGGAATCCATGGACCGGTTTTCCCGGTAATCCGTATTTGTT (site CGAAATTCTAA)”, the figure is 0; as for “CGGAATCCATGGACCGGTTTTCCCGGTAATCCGTATTTGTT (site CGAATTCCTAA)”, 0; as for “CGGAATCCATGGACCGGTTTTCCCGGTAATCCGTATTTGTT (site CGAGATCCTAA)”, 0.
In the case of “CGGAATCCATGGACCGGTTTTCCCGGTAATCCGTATTTGTT (site CGCAACCCTAA)”, the “recombinant UMI read abundance (log10)” value was 0.00816.
